Source: patent US20240384268A1, “Oligonucleotides” (Hudson Institute of Medical Research, priority 2021, published 2024)
“Also recorded” adds a separate entry of the source. In the oligonucleotide strings, read from the 5' end, every base follows the letter of its sugar. An asterisk marks phosphorothioate; unmarked linkages are phosphodiester. Other units and linkages are bracketed, terminal groups are in braces. A string of capitals states the bases alone. d = 2'-deoxy (DNA); m = 2'-O-methyl

Tests used:
cGAS [1] = molecular target: cGAS (Mus musculus, UniProt Q8C6L5); test: ISD-driven IP-10 production in immortalised mouse BMDMs; type: cell-based; design: endogenous in cells; host or cells: immortalised wild-type mouse bone marrow macrophages (iBMDMs); settings: iBMDMs; 500 nM ASO; ISD overnight
Chain of cGAS (Mus musculus, UniProt Q8C6L5) (Q8C6L5 whole entry): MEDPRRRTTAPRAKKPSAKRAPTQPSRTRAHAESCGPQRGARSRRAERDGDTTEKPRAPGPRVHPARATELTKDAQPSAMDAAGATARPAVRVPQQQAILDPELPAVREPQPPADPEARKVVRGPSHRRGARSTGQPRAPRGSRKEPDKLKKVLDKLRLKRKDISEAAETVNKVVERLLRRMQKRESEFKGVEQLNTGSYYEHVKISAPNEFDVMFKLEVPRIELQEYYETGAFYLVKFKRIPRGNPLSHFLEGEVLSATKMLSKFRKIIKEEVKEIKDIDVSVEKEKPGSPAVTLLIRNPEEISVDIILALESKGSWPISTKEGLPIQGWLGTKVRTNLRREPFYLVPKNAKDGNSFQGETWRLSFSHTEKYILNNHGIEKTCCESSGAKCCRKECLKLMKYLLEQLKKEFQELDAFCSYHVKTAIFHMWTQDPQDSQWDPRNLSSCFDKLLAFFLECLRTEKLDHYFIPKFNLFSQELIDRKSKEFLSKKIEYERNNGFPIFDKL

cGAS [2] = molecular target: T1, cGAS (Homo sapiens, UniProt Q8N884); test: ISD70-driven IP-10 production in MG-63 cells; type: cell-based; design: endogenous in cells; settings: C2-Mut1 500 nM 6 h, or ASO847 series ~30 min, ISD70 overnight
T1 sequence (Q8N884 whole entry): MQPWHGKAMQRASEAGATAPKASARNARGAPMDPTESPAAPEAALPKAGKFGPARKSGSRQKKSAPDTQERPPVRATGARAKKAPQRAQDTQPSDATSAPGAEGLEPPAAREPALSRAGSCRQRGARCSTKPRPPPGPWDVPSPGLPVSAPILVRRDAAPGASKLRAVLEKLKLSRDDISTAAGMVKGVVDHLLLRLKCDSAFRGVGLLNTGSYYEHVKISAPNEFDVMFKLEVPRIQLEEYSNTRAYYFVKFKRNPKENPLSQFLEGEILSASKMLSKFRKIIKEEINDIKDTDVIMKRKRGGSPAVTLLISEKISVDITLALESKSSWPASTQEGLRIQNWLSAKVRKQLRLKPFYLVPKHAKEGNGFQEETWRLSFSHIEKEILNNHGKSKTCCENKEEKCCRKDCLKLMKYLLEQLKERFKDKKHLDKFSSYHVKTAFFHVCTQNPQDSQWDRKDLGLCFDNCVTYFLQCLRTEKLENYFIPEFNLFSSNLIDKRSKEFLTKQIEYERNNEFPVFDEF

TLR4 = test: LPS-driven IP-10 in MG-63 cells and immortalised mouse BMDMs; type: cell-based, human; settings: 500 nM ASO 6 h; LPS 1 μg/ml overnight
[3] = system: primary fibroblast-like synoviocytes (FLS) and bone marrow-derived MSCs; test: Senescence β-galactosidase staining of primary FLS and MSCs; settings: naked ASO 1 to 5 μM for one to two weeks; listed as C2-Mutl
cGAS [4] = molecular target: T1, cGAS; test: IFN-driven gene expression in BJ hTERT SV40T fibroblasts (constitutive cGAS activation), RT-qPCR; settings: ASO transfected 20-100 nM overnight
cGAS [5] = molecular target: T1, cGAS; test: ISD70-driven IP-10 production in HT-29 cells, ELISA; type: cell-based; design: endogenous in cells; settings: ISD70 24 h
Description: In such examples, inhibition of cGAS activity can be identified by observation of an overall decreased cGAS response of the cell population, or a lower proportion of cells having cGAS-positive activity as compared to positive control condition in which cells are treated with cGAS agonist in the absence of the oligonucleotide (or in the presence of an appropriate control inhibitory agent). In one example, THP-1 or HT-29 cells are transfected with ISD70 and incubated with an oligonucleotide. cGAS activity can then be determined by cytokine (e.g., IP-10 and/or IFNβ) expression (e.g., gene and/or protein expression) and/or secretion levels, such as by ELISA. A similar assay can be performed with LL171 cells transfected with ISD45. […] By way of example, cGAS enzymatic activity may be assessed in vitro using recombinant cGAS and then measuring activity thereof by way of a cGAMP ELISA.
For cGAS stimulations, cells were treated for indicated duration with ASOs, prior to transfection with ISD70 (human cells) or ISD45 (mouse cells) (the ASOs were not washed off prior to ISD transfection unless otherwise indicated). The cGAS ligands ISD45 (Stetson and Medzhitov, 2006) and ISD70 (also known as VACV-70 (Unterholzner et al., 2010)) (Table 1) were resuspended as follows: 5 1d of sense and 5 μl of antisense strands at 10 μg/μl were added to 90 μl PBS under sterile conditions, heated at 75° C. for 30 min, prior to letting cool down at room temperature and aliquoting (stock at 1 μg/1 l). The ISDs were transfected at a concentration of […] at a ratio of 1 μg:1 μl with Lipofectamine 2000 in Opti-MEM (Thermo Fisher Scientific). HEK-TLR3, HEK-TLR7 and […] were treated with indicated concentration of ASOs for 20-50 min, prior to stimulation with poly(I:C) (Invivogen), R848 (Invivogen), Motolimod (MedChemExpress) and the Class B CpG oligonucleotides ODN 2006 (synthesised by IDT and resuspended in RNase-free TE buffer [Table 1]), respectively. The TLR2/1 agonist PAM3CSK4 (Invivogen), the TLR4 agonist lipopolysaccharide (Invivogen), the Class B CpG oligonucleotides ODN 1826 (synthesised by IDT and resuspended in RNase-free TE buffer), the mouse Sting agonist DMXAA (Cayman) and the human STING agonist (compound #3 from (Raanjulu et al., 2018), referred to as GSK herein—kind gift from Cancer Therapeutics CRC, Australia) were used at indicated concentrations. Aspirin (Sigma—A2093) was resuspended in pure medium to 10 mM, filter sterilised and added to the cells at 2 mM final. All ASOs were synthesised by Integrated DNA Technologies (IDT), and resuspended in RNase-free TE buffer, pH 8.0 (Thermo Fisher Scientific). Cell viability was assessed by adding 1× fresh resazurin solution to the wells (10λ solution made up with 7 mg resazurin [Sigma—R7017] dissolved in 3.5 ml PBS, sterile filtered at […]) for 4 h, prior to reading at with a Fluostar OPTIMA (BMG LABTECH) plate-reader (fluorescence: Excitation 535 nm, Emission 590); wells with medium only and 1× resazurin were used as blanks.
Human IP-10 and IFN-β levels were measured using supernatants from the different cultures and were quantified using IP-10 (BD Biosciences, #550926) or IFN-β (PBL assay science, #41415-1) ELISA kits respectively, according to the manufacturers' protocol. Tetramethylbenzidine substrate (Thermo Fisher Scientific) was used for quantification of the cytokines on a Fluostar OPTIMA (BMG LABTECH) plate-reader.

mG*mC*mG*mG*mU*A*T*C*C*A*T*G*T*C*C*mC*mA*mG*mG*mC (mG*mC*mG*mG*mU*dA*dT*dC*dC*dA*dT*dG*dT*dC*dC*mC*mA*mG*mG*mC; antisense) [C2-Mut1]
ISD-induced IP-10 in immortalised mouse BMDMs (in words) (cGAS [1]): significantly impacting ISD sensing | inhibition of ISD sensing in MG-63, 2′OMe ASOs (in words) (cGAS [2]): significantly impacting ISD sensing | IP-10 production driven by LPS (in words) (TLR4): did not significantly affect IP-10 production | senescence-associated β-galactosidase (SAB) positive cells (in words) [3]: senescence was strongly reduced; also recorded: more potent inhibitor of SAB than A151 | inhibition of constitutively expressed ISGs (IFIT1, IFIT2, IFI44; in words) (cGAS [4]): significantly more potent than its two nucleotide variant C2-Mut1v3 | inhibition of ISD70-dependent IP-10 production (in words) (cGAS [5]; 187.5 nM ASO overnight): most inhibitory sequence of ISD70 sensing | effect on ISD70-induced IP-10 production at low dose (in words) (cGAS [5]; ASO overnight at 125 nM (62.5-125 nM)): increased inhibitory activity
